# Reference: US20260091050A1, “ADVANTAGEOUS ANTI-HCV COMBINATION THERAPY” (Atea Pharmaceuticals, Inc., priority 2021, published 2026)
# Experiments:
# [1] = test system: GT1 HCV; assay: Multiple dose study, 7 days QD, non-cirrhotic GT1 HCV-infected patients (Part C); assay type: in vivo, human
# Experimental: Doses were administered as the Compound 1-A salt base. The free base Compound 1 equivalent is often given in parenthesis.
# (§1) Part C was a randomized, double-blind, placebo-controlled MAD study divided into three cohorts. […] The dose escalation only proceeded following satisfactory review of the data.
# HCV-infected patients were treatment-naïve with HCV RNA ≥5 log 10 IU/mL. HCV RNA was quantified using COBAS® AmpliPrep TaqMAN® v2.0 with LLQ of 15 IU/mL. Plasma drug levels were measured using LC-MS/MS. […] Mean ages of enrolled subjects were 44, 39, and 56 years in the non-cirrhotic GT1b 600 mg dose cohort, non-cirrhotic GT3 cohort, and the cirrhotic cohort, respectively.
# [2] = Three-part study (Parts C, D, E) of Compound 1-A: overall safety/tolerability and pharmacokinetics; assay type: in vivo, human
# Experimental: as §1
# HCV-infected patients were treatment-naïve with HCV RNA ≥5 log 10 IU/mL. […] Plasma drug levels were measured using LC-MS/MS.
# [3] = Single ascending dose study of Compound 1-A in healthy volunteers (Part A); assay type: in vivo, human
# Experimental: Compound 1-A was tested in a single ascending dose (SAD) study to measure its safety, tolerability, and pharmacokinetic in healthy subjects (Part A). Part A was a randomized, double-blind, placebo-controlled SAD study. Healthy subjects in Part A received a single dose of Compound 1-A or placebo in the fasting state. Subjects were confined to the clinic from Day −1 to Day 6.
# Dosing in each cohort was staggered such that 2 subjects (1 active:1 placebo) were evaluated for 48 hours after dosing before the remainder of the cohort was dosed. Each cohort received Compound 1-A in ascending order. Dosing of sequential cohorts occurred based on review of available safety data (through Day 5) and plasma pharmacokinetic data (through 24 h) of the prior cohort.
# As pharmacokinetic and safety data emerged from prior cohorts, doses evaluated in Cohorts 3a-4a were adjusted by increments no more than 100 mg.
# Healthy volunteers in the Part A portion of the study were male and female subjects between the ages of 18 and 65. Active and placebo recipients were pooled within each Part A cohort to preserve the study blind.
# [4] = test system: HCV; assay: Emax model: HCV RNA reduction on day 7 against AUC of metabolite 1-7; assay type: in vivo, human; conditions: after 7 days QD dosing, metabolite 1-7 exposures ≥2000 ng/mL×h
# [5] = Accelerated stability (40 ± 2° C./75 ± 5% RH) of Compound 1-A over 6 months; assay type: physicochemical
# Experimental: Three conditions were tested: accelerated stability (40±2° C./[…]) over a 6-month time period, ambient stability (25±2° C./[…]) over a 9-month period, and stability under refrigerator conditions (5±3° C.) over a 9-month time period. The results for accelerated stability, ambient stability, and refrigerator conditions are shown in Table 23, Table 24, and Table 25, respectively.
# [6] = Chemical stability of Compound 1-A at 25° C./60% RH and 40° C./75% RH over 6 months; assay type: physicochemical; conditions: for Increase of percent of water: over 6 months
# Experimental: The container closure system for the study was a combination medicinal valve bag with a pharmaceutical laminated film over the pouch and desiccant silica gel between the two layers. […] Bags were then stored at 25° C./60% RH (relative humidity) and 40° C./75% RH (relative humidity). Organic purity, water content, ^1HNMR, DSC and Raman were measured at Time 0, Month 1, Month 2, Month 3 and Month 6.
# The sample was dissolved in acetonitrile—water (90:10) (v/v). The gradient method is shown below.
# [7] = Solubility in biorelevant test medias (water, SGF, FaSSIF, FeSSIF); conditions: for Appearance: solubility test; for Descriptive term: solubility
# [8] = 600 mg of Compound 1-A, GT1, non-cirrhotic (n = 6)
# [9] = 25° C., Month 1, compared with Day 0
# [10] = 25° C., Month 2, compared with Day 0
# [11] = 25° C., Month 3, compared with Day 0
# [12] = 25° C., Month 6, compared with Day 0
# [13] = 40° C., Month 1, compared with Day 0
# [14] = 40° C., Month 2, compared with Day 0
# [15] = 40° C., Month 3, compared with Day 0
# [16] = 40° C., Month 6, compared with Day 0
smiles,measurement,setting,value
"CNc1nc(N)nc2c1ncn2[C@@H]1O[C@H](CO[P@@](=O)(N[C@@H](C)C(=O)OC(C)C)Oc2ccccc2)[C@@H](O)[C@@]1(C)F [Compound 1-A, isopropyl ((S)-(((2R,3R,4R,5R)-5-(2-amino-6-(methylamino)-9H-purin-9-yl)-4-fluoro-3-hydroxy-4-methyltetrahydrofuran-2-yl)methoxy) (phenoxy)phosphoryl)-L-alaninate hemisulfate]",subjects achieving HCV RNA <LOQ,"[1]; 600 mg QD, non-cirrhotic GT1b, LOQ=15 IU/mL",50%
same,Mean Max Reduction,[1]; [8],4.4 log10 IU/mL
same,Mean Reduction After 24 hours,[1]; [8],2.1 log10 IU/mL
same,HCV RNA < LOQ (15 IU/mL),"[1]; 600 mg of Compound 1-A, GT1, non-cirrhotic (n = 6), subjects/total",3/6
same,impact of mild hepatic impairment on PK,[2]; based on plasma exposures,did not significantly impact
same,low-grade lipid abnormalities (cholesterol and triglyceride increase),[2]; compared to placebo,higher incidence
same,tolerability,[2]; up to 600 mg salt form for seven days,well tolerated
same,intensity of adverse effects,[3],mild to moderate
same,serious adverse events,"[3]; healthy subjects, single dose",No serious adverse events
same,predicted maximal viral load reduction,[4],at least 4 log units
same,Appearance,[5]; 0 month,White
same,Assay,[5]; 0 month,98.8%
same,IR,[5]; 0 month,correspond
same,Related Substance 1 Any other single impurity,[5]; 0 month,0.01%
same,Related Substance 1 Total Impurities,[5]; 0 month,0.01%
same,Water,[5]; 0 month,0.45%
same,Appearance,[5]; 1st month,White
same,Assay,[5]; 1st month,101.5%
same,Related Substance 1 Any other single impurity,[5]; 1st month,0.02%
same,Related Substance 1 Total Impurities,[5]; 1st month,0.02%
same,Water,[5]; 1st month,0.21%
same,Appearance,[5]; 3rd month,White
same,Assay,[5]; 3rd month,99.6%
same,IR,[5]; 3rd month,correspond
same,Related Substance 1 Any other single impurity,[5]; 3rd month,0.01%
same,Related Substance 1 Total Impurities,[5]; 3rd month,0.02%
same,Water,[5]; 3rd month,0.36%
same,Appearance,[5]; 6th month,White
same,Assay,[5]; 6th month,99.5%
same,IR,[5]; 6th month,correspond
same,Related Substance 1 Any other single impurity,[5]; 6th month,0.05%
same,Related Substance 1 Impurity F,[5]; 6th month,0.01%
same,Related Substance 1 Total Impurities,[5]; 6th month,0.08%
same,Related Substance 2 Impurity G,[5]; 6th month,no detection
same,Water,[5]; 6th month,0.41%
same,Chemical stability (overall conclusion),"[5]; accelerated, ambient and refrigerator studies",very chemically stable
same,Maximum Impurity Percent,"[6]; 25° C., Day 0",0.12%
same,Percent Purity,"[6]; 25° C., Day 0",99.82%
same,Percent Water,"[6]; 25° C., Day 0",1.2%
same,Maximum Impurity Percent,"[6]; 25° C., Month 1",0.12%
same,Percent Purity,"[6]; 25° C., Month 1",99.77%
same,Percent Water,"[6]; 25° C., Month 1",1.9%
same,DSC,[6]; [9],The same
same,Raman,[6]; [9],The same
same,^1HNMR,[6]; [9],The same
same,Maximum Impurity Percent,"[6]; 25° C., Month 2",0.12%
same,Percent Purity,"[6]; 25° C., Month 2",99.75%
same,Percent Water,"[6]; 25° C., Month 2",1.8%
same,DSC,[6]; [10],The same
same,Raman,[6]; [10],The same
same,^1HNMR,[6]; [10],The same
same,Maximum Impurity Percent,"[6]; 25° C., Month 3",0.12%
same,Percent Purity,"[6]; 25° C., Month 3",99.75%
same,Percent Water,"[6]; 25° C., Month 3",1.8%
same,DSC,[6]; [11],The same
same,Raman,[6]; [11],The same
same,^1HNMR,[6]; [11],The same
same,Maximum Impurity Percent,"[6]; 25° C., Month 6",0.13%
same,Percent Purity,"[6]; 25° C., Month 6",99.74%
same,Percent Water,"[6]; 25° C., Month 6",1.8%
same,DSC,[6]; [12],The same
same,Raman,[6]; [12],The same
same,^1HNMR,[6]; [12],The same
same,Increase of percent of water,[6]; 25° C.,approximately 0.6%
same,Maximum Impurity Percent,"[6]; 40° C., Day 0",0.12%
same,Percent Purity,"[6]; 40° C., Day 0",99.82%
same,Percent Water,"[6]; 40° C., Day 0",1.2%
same,Maximum Impurity Percent,"[6]; 40° C., Month 1",0.12%
same,Percent Purity,"[6]; 40° C., Month 1",99.71%
same,Percent Water,"[6]; 40° C., Month 1",2.0%
same,DSC,[6]; [13],The same
same,Raman,[6]; [13],The same
same,^1HNMR,[6]; [13],The same
same,Maximum Impurity Percent,"[6]; 40° C., Month 2",0.12%
same,Percent Purity,"[6]; 40° C., Month 2",99.63%
same,Percent Water,"[6]; 40° C., Month 2",1.9%
same,DSC,[6]; [14],The same
same,Raman,[6]; [14],The same
same,^1HNMR,[6]; [14],The same
same,Maximum Impurity Percent,"[6]; 40° C., Month 3",0.12%
same,Percent Purity,"[6]; 40° C., Month 3",99.58%
same,Percent Water,"[6]; 40° C., Month 3",1.9%
same,DSC,[6]; [15],The same
same,Raman,[6]; [15],The same
same,^1HNMR,[6]; [15],The same
same,Maximum Impurity Percent,"[6]; 40° C., Month 6",0.14%
same,Percent Purity,"[6]; 40° C., Month 6",99.30%
same,Percent Water,"[6]; 40° C., Month 6",1.9%
same,DSC,[6]; [16],The same
same,Raman,[6]; [16],The same
same,^1HNMR,[6]; [16],The same
same,Increase of percent of water,[6]; 40° C.,approximately 0.7%
same,Appearance,[7]; FaSSIF,Turbid
same,Appearance,[7]; FeSSIF,Turbid
same,Appearance,[7]; SGF,Turbid
same,Appearance,[7]; Water,Turbid
same,Descriptive term,[7]; FaSSIF,Slightly
same,Descriptive term,[7]; FeSSIF,Slightly
same,Descriptive term,[7]; SGF,Soluble
same,Descriptive term,[7]; Water,Soluble
